Measurements taken from KR20240040049A, “신규 화합물 및 이를 포함하는 염증성 질환과 암에 대한 진단 및 치료에 사용되는 mri 조영제” (주식회사 테라노큐어, priority 2022, dated 2024).
Converted amounts (≈) assume the structure as drawn. “Also recorded” adds a separate entry of the source.

Tests used:
[1] = water solubility at 25℃; format: physicochemical; details: for solubility: water
[2] = r1 relaxivity of gadolinium complexes; format: physicochemical; details: in words; comparison among compounds
[3] = tested on: PARP; experiment: acute hepatitis animal model (LPS and D-galactosamine): PARP; format: in vivo; details: Gd-galangin i.v. 0.1 mmol/kg, galangin oral
[4] = tested on: LPS-induced inflamed tissue (LPS로 유발된 염증 조직); experiment: H&E staining of LPS-induced inflamed tissue; format: in vivo
[5] = tested on: NLRP3; experiment: acute hepatitis animal model (LPS and D-galactosamine): NLRP3; format: in vivo; details: Gd-galangin i.v. 0.1 mmol/kg, galangin oral

Row | r1 relaxivity [2] | Structure (SMILES) | solubility in water [1] | solubility in water (words) [1] | solubility [1] | effect on PARP [3] | intercellular spacing / closeness to normal tissue ([4]; Gd-galangin i.v. versus galangin oral) | histological state compared with LPS alone ([4]; Gd-galangin i.v., galangin oral) | effect on NLRP3 [5]
1 | 유사한 값 | O=C([O-])CN1CCN(CC(=O)[O-])CCN(C(CO)C(O)CO)CCN(CC(=O)[O-])CC1.[Gd+3] (stereo not drawn) [Gd-BT-DO3A] | – | – | – | – | – | – | –
2 | 유사한 값 | O=C([O-])CN1CCN(CC(=O)[O-])CCN(CC(=O)O)CCN(CC(=O)[O-])CC1.[Gd+3] [Gd-DOTA] | – | – | – | – | – | – | –

Continued, compound first:

Row | Structure (SMILES) | r1 relaxivity [2] | solubility in water [1] | solubility in water (words) [1] | solubility [1] | effect on PARP [3] | intercellular spacing / closeness to normal tissue ([4]; Gd-galangin i.v. versus galangin oral) | histological state compared with LPS alone ([4]; Gd-galangin i.v., galangin oral) | effect on NLRP3 [5]
3 | O=c1cc(-c2ccccc2)oc2cc(O)ccc12 [7-hydroxyflavone, 7-Hydroxyflavone] | – | 356 µM (≈ 84.8 µg/mL) | 거의 물에 녹지 않는 불용성 물질; also recorded: Insoluble | 85 µg/mL (≈ 357 µM) | – | – | – | –
4 | O=c1cc(-c2ccccc2)oc2cc(O)cc(O)c12 [chrysin] | – | 330 µM (≈ 83.9 µg/mL) | 거의 물에 녹지 않는 불용성 물질; also recorded: Insoluble | 84 µg/mL (≈ 330 µM) | – | – | – | –
5 | O=c1c(O)c(-c2ccccc2)oc2cc(O)cc(O)c12 [galangin, 3,5,7-트리히드록시플라본] | – | 2117 µM (≈ 572 µg/mL) | 거의 물에 녹지 않는 불용성 물질; also recorded: Insoluble | 572 µg/mL (≈ 2120 µM) | 아무런 효과를 보이지 않았으며 | 전반적으로 더 벌어져 | 더 나은 상태 | 아무런 효과를 보이지 않았으며
